Reference: patent US20260317356A1, “SMALL MOLECULE MODULATORS OF OGG1” (AZKARRA THERAPEUTICS, INC., priority 2023, published 2026)

The molecules below were run against hOGG1 (Homo sapiens, UniProt O15527) (assay: Biochemical fluorescence assay to measure enzymatic activity of hOGG1 (OGG1/APEX IC50)). Conditions: 1 nM OGG1+2 nM APEX+6 nM dsDNA (8-oxo-dG substrate); pH 7.5; RT 40 min; read-out: OGG1/APEX IC50.
hOGG1, sequence (O15527 12-323): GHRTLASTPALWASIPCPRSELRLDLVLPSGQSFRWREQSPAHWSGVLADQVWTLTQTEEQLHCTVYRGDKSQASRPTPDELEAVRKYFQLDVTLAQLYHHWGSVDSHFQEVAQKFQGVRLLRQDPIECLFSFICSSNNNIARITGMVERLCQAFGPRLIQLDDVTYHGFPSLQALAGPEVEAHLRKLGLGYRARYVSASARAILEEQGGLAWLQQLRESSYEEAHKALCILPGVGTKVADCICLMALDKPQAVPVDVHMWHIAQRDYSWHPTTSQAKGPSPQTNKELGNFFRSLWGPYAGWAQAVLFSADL
Set-up: Protein His-hOGG1 (12-323) was prepared; His (N); host or cells: E. coli
Method in brief: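 Coupled glycosylase/AP-endonuclease read-out: 8-oxo-dG-containing dsDNA (6 nM) cleaved by 1 nM His-hOGG1 (12-323) plus 2 nM APEX1 over 40 min at room temperature, after 20 min enzyme–compound preincubation; buffer 20 mM Tris pH 7.5, 100 mM KCl, 0.1% BSA, 0.01% Tween. IC50 comes from sigmoidal 3-parameter fitting of % inhibition derived from TAMRA signal.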
`COc1cc(NC(=O)[C@H]2CC[C@@H](N3Cc4c(C)cnc(CN)c4NC3=O)CC2)ccc1C` [Example 20, (1s,4s)-4-(8-(Aminomethyl)-5-methyl-2-oxo-1,2-dihydropyrido[3,4-d]pyrimidin-3(4H)-yl)-N-(3-methoxy-4-methylphenyl)cyclohexanecarboxamide] gave an IC50 of less than 100 nM. Molecule `COc1cc(NC(=O)[C@H]2CC[C@@H](N3Cc4c(C)cc(OCc5ncc[nH]5)cc4C3=O)CC2)ccc1C` [Example 226, (1s,4s)-4-(6-((1H-Imidazol-2-yl)methoxy)-4-methyl-1-oxoisoindolin-2-yl)-N-(3-methoxy-4-methylphenyl)cyclohexanecarboxamide] has an IC50 of 100 to 1000 nM. Work on `Cc1cccc2c1CN([C@H]1CC[C@@H](C(=O)Nc3ccc4cnn(C)c4c3)CC1)C2=O` [Example 215, (1s,4s)-4-(4-Methyl-1-oxoisoindolin-2-yl)-N-(1-methyl-1H-indazol-6-yl)cyclohexanecarboxamide] yielded an IC50 of 1000 to 10000 nM. `Cc1cccc2c1CN([C@H]1CC[C@@H](C(=O)Nc3cccc(=O)[nH]3)CC1)C2=O` [Example 248, (1s,4s)-4-(4-Methyl-1-oxoisoindolin-2-yl)-N-(6-oxo-1,6-dihydropyridin-2-yl)cyclohexanecarboxamide] gave an IC50 greater than 10000 nM. For `COc1cc(NC(=O)[C@H]2CC[C@@H](N3Cc4c(C)ccc(N5CC(C)(C#N)C5)c4NC3=O)CC2)ccc1C` [Example 34, (1s,4s)-4-(8-(3-Cyano-3-methylazetidin-1-yl)-5-methyl-2-oxo-1,2-dihydroquinazolin-3(4H)-yl)-N-(3-methoxy-4-methylphenyl)cyclohexanecarboxamide], the IC50 was 100 to 1000 nM. `COc1cc(NC(=O)[C@H]2CC[C@@H](n3[nH]c4c(C)cc(F)cc4c3=O)CC2)ccc1C` [Example 119, (1s,4s)-4-(5-Fluoro-7-methyl-3-oxo-1,3-dihydro-2H-indazol-2-yl)-N-(3-methoxy-4-methylphenyl)cyclohexane-1-carboxamide] gave an IC50 of 100 to 1000 nM. With `COc1cc(NC(=O)[C@H]2CC[C@@H](N3Cc4c(C)cc(OCCN(C)C)cc4NC3=O)CC2)ccc1C` [Example 82, (1s,4s)-4-(7-(2-(dimethylamino)ethoxy)-5-methyl-2-oxo-1,2-dihydroquinazolin-3(4H)-yl)-N-(3-methoxy-4-methylphenyl)cyclohexanecarboxamide] the IC50 was less than 100 nM. With `COCc1ccc(C)c2c1NC(=O)N([C@H]1CC[C@@H](C(=O)Nc3ccc(C)c(OC)c3)CC1)C2` [Example 1, (1s,4s)-N-(3-Methoxy-4-methylphenyl)-4-(8-(methoxymethyl)-5-methyl-2-oxo-1,2-dihydroquinazolin-3(4H)-yl)cyclohexanecarboxamide] the IC50 was 1000 to 10000 nM. `COc1cc(NC(=O)[C@H]2CC[C@@H](N3Cc4c(Br)cccc4C3=O)CC2)ccc1C` [Example 150, (1s,4s)-4-(4-Bromo-1-oxoisoindolin-2-yl)-N-(3-methoxy-4-methylphenyl)cyclohexanecarboxamide] was tested, and the IC50 was 100 to 1000 nM. `Cc1cccc2c1CN([C@H]1CC[C@@H](C(=O)Nc3ccc4cc[nH]c4c3)CC1)C(=O)N2` [Example 113, (1s,4s)-N-(1H-indol-6-yl)-4-(5-methyl-2-oxo-1,2-dihydroquinazolin-3(4H)-yl)cyclohexanecarboxamide] was tested, and the IC50 was 100 to 1000 nM. `Cc1cc(NCCN(C)C)cc2c1CN([C@H]1CC[C@@H](C(=O)Nc3ccc(Cl)c(F)c3)CC1)C2=O` [Example 264, (1s,4s)-N-(4-Chloro-3-fluorophenyl)-4-(6-(2-(dimethylamino)ethylamino)-4-methyl-1-oxoisoindolin-2-yl)cyclohexanecarboxamide] was tested, and the IC50 was less than 100 nM. In the case of `COc1cc(NC(=O)[C@]2(C)CC[C@@H](N3Cc4c(C)cccc4NC3=O)CC2)ccc1C` (single isomer, unassigned) [Example 102, (1r,4r)-N-(3-methoxy-4-methylphenyl)-1-methyl-4-(5-methyl-2-oxo-1,2-dihydroquinazolin-3(4H)-yl)cyclohexanecarboxamide], the IC50 is reported as 1000 to 10000 nM.
